These results are taken from article PMC11151938 (Nature, 2024).

In assay [1] the test system is primary MEFs infected with PR8. As to the kind of experiment: IAV-induced necroptosis in primary MEFs. In kind it is cell-based, mouse. To be noted: PR8 MOI 2, zVAD 50 μM.
Assay [2] has as its system panel of 90 non-mutant human kinases. To be noted: FDA-approved TKIs, comparison values; cited from earlier work.
The test system of assay [3] is Ripk3−/− MEFs. The assay can be described thus: RIPK1 kinase-driven cell death in Ripk3−/− MEFs. Type of assay: cell-based, mouse. As to conditions: TNFα + TAK1 inhibitor.
Assay [4] has as its target T1, RIPK3 (Homo sapiens, UniProt Q9Y572). As to conditions: cited from earlier work.
In assay [5] the test system is RIPK3. As to conditions: cited from earlier work.
For assay [6], the system named is necroptosis in cells. The assay can be described thus: Necroptosis blockade in cells. To be noted: read-out: blocking necroptosis in cells IC50. Type of assay: cell-based.
For assay [7], the target named is T1, RIPK3. The assay can be described thus: In vitro RIPK3 kinase assay. In kind it is biochemical.
Assay [8] relates to influenza. As to conditions: mice and humans ref 36, 37; cited from earlier work.

T1 sequence (Q9Y572 1-313): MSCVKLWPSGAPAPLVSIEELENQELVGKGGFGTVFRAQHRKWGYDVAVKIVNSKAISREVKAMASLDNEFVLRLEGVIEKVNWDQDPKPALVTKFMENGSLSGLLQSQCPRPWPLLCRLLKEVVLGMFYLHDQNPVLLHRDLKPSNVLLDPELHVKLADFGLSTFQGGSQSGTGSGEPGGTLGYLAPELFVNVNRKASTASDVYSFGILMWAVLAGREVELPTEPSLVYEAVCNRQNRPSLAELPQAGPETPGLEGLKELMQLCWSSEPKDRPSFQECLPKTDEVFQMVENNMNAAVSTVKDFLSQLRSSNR

For `CCCS(=O)(=O)Nc1cc(-c2cc(-c3ccc(N4CCNCC4)cc3)cnc2N)cc(F)c1OC` [CSLP37], the IAV-triggered necroptosis result in assay [1] was “neither the ABL inhibitor imatinib (Gleevec) nor the selective RIPK2 inhibitor CSLP37[32] blocked IAV-triggered necroptosis”.

In the case of `Cc1nc(Nc2ncc(C(=O)Nc3c(C)cccc3Cl)s2)cc(N2CCN(CCO)CC2)n1` [Dasatinib], the “S(35) selectivity score” value in assay [2] is 0.28.

With `N#Cc1cc(N2CCC(C(=O)N3N=CC[C@H]3c3cc(F)cc(F)c3)CC2)ncn1` [GSK’547], the “activity against RIPK1 kinase-driven cell death” value in assay [3] is “able to block such death”.

Regarding `CNC(=O)c1ccc2c(c1)ncn2-c1ccc(CC(=O)OC(C)(C)C)cc1` [GSK’840], the “activity against recombinant RIPK3 in vitro” value in assay [4] is recorded as “potent activity”. Also, in assay [5], the activity in cells entry is reported as “unexpectedly modest activity”.

On to `Cc1cc(-c2cnc(N)c3c(-c4ccc5scnc5c4)csc23)n(C)n1` [GSK’843], for which the “activity against recombinant RIPK3 in vitro” value in assay [4] is on record as “potent activity”. Besides, the activity in cells result in assay [5] is recorded as “unexpectedly modest activity”.

Turning to `CC(C)S(=O)(=O)c1ccc2nccc(Nc3ccc4scnc4c3)c2c1` [GSK’872], the activity in cells entry in assay [5] is recorded as “unexpectedly modest activity”.

In the case of `CCN(CC)CCOc1ccc(Nc2ncc3cc(-c4c(Cl)cccc4Cl)c(=O)n(C)c3n2)cc1` [PD166285], the results for the IC50 in assay [6] and in assay [7] were 2880 nM and 1080 nM, respectively.

As for `CNC(=O)c1cc(Oc2ccc(NC(=O)Nc3ccc(Cl)c(C(F)(F)F)c3)cc2)ccn1` [Sorafenib], in assay [2], the “S(35) selectivity score” value is on record as 0.22.

Regarding `Cc1ccc(NC(=O)c2ccc(CN3CCN(C)CC3)cc2)cc1Nc1nccc(-c2cccnc2)n1` [imatinib], in assay [1], the IAV-triggered necroptosis result is “neither the ABL inhibitor imatinib (Gleevec) nor the selective RIPK2 inhibitor CSLP37[32] blocked IAV-triggered necroptosis”.

Regarding `CCOC(=O)C1=C[C@@H](OC(CC)CC)[C@H](NC(C)=O)[C@@H](N)C1` [oseltamivir], in assay [8], the “time of administration after infection beyond which therapeutic benefit is lost” value was “more than 48 h”.
